Laboratory results as given in PMC3961230, “Theoretical and Experimental Studies of New Modified Isoflavonoids as Potential Inhibitors of Topoisomerase I from Plasmodium falciparum” (PLoS ONE, 2014).
In brackets after ≈: the same amount, converted by molar mass. Read-outs that look alike come from different tables or passages of the source. One block for each molecule: values may come before it.

Experiments:
[1] = tested on: P. falciparum CQ-resistant (W2 clone); experiment: anti-HRPII test, P. falciparum blood parasites, CQ-resistant W2 clone; type: cell-based; settings: Plasmodium falciparum
Excerpt: (§1) A CQ-resistant and mefloquine-sensitive P. falciparum, clone W2 [27] and a CQ-sensitive strain 3D7, were cultivated as described, in human erythrocytes (A^+), in complete medium (RPMI 1640 supplemented with 10% human sera blood group A^+) and tests followed a protocol slightly modified as follows. Human erythrocytes (A^+) and serum blood group A^+ were kindly donated by Center of Hemotherapy and Hemathology of Minas Gerais (HEMOMINAS - http://www.hemominas.mg.gov.br), under the mutual cooperation term number 18/09.
(§2) The ring-stage parasites sorbitol-synchronized were adjusted for parasitemia and hematocrit, according to the specifications for the test, then distributed in 96-well microtiter plates (Corning, Santa Clara, CA, EUA), previously prepared and containing the diluted compounds in dimethyl sulfoxide (DMSO) (0.02%) aqueous stock solution, in triplicates for each dose. CQ, the standard antimalarial, was tested in parallel each time. The drug activity was determined in relation to parasite cultures in complete medium and no drugs, as described. Parasite growth was measured through the anti-HRPII test in cultures adjusted to 1.5% hematocrit and 0.05% parasitemia, with monoclonal antibodies (MPFM-55A and MPFG-55P) commercially acquired (ICLLAB®, USA) and the TMB chromogen (3,3′,5,5′-Tetramethylbenzidine) from KPL (Gaithersburg, MD, EUA). The reaction was stopped with […] of 1 M sulfuric acid, absorbance read at 450 nm in a spectrophotometer (SpectraMax340PC384, Molecular Devices). Sigmoid dose-response curves were generated with curve-fitting software (Microcal Origin Software 5.0, Inc.), used to determine the 50% inhibitory concentration of the parasite growth (IC50), and activity calculated by comparing growth in drug-exposed cultures and the drug-free control cultures.

[2] = tested on: P. falciparum CQ-sensitive (3D7 strain); experiment: anti-HRPII test, P. falciparum blood parasites, CQ-sensitive 3D7 strain; type: cell-based; settings: Plasmodium falciparum
Excerpt: as §1, §2

[3] = tested on: normal kidney glomerular cells from green monkey (BGM); experiment: Cytotoxicity test (MTT) against BGM cells; type: cell-based; settings: for MDL50 (µg/mL) Mean ± SD: 24 h
Procedure: The cytotoxicity tests were performed against normal kidney glomerular cells from green monkey (BGM) as follows. The cells were cultured under a 5% CO2 atmosphere, at 37°C, in 75 cm^2 sterile flasks in RPMI 1640 medium supplemented with 10% heat-inactivated fetal calf serum, and 40 mg/L gentamicin. When confluent, the cell monolayer was washed with culture medium, trypsinized, distributed in flat-bottomed 96-well plates (5×10^3 cells/well), and incubated for 18 h at 37°C for cell adherence. The compounds (20 µL) were added to the cell plates, at various concentrations (1000 to1 µg/mL), incubated for 24 h, then received a solution of MTT [3-(4,5-dimethylthiazol-2-yl)-2,5-diphenyltetrazolium bromide] (5 mg/mL; 20 µL/well), followed by another 3 h incubation, to evaluate mitochondrial viability. The supernatants were removed, DMSO added to each well (100 µL), carefully mixed to solubilize the formazan crystals. The optical density was determined at 570 and 630 nm (background) (SpectraMax340PC384, Molecular Devices). Cell viability was expressed as the percentage of the control absorbance in the untreated cells after subtracting the appropriate background. The minimum lethal dose for 50% of the cells (MLD50) was determined and the selectivity index (SI) calculated as the ratio between cytotoxicity and activity.

[4] = tested on: P. berghei CQ-sensitive (NK65); experiment: Antimalarial suppressive test against P. berghei in mice; type: in vivo, P. berghei in Swiss mice; settings: for % Reduction of parasitemia, 5th day, Exp.1 / Mean Parasitemia ± SD, 5th day, Exp.1 / % Reduction of parasitemia, 7th day, Exp.1 / Mean Parasitemia ± SD, 7th day, Exp.1 / % Reduction of parasitemia, 5th day, Exp.2 / Mean Parasitemia ± SD, 5th day, Exp.2 / % Reduction of parasitemia, 7th day, Exp.2 / Mean Parasitemia ± SD, 7th day, Exp.2: oral, 3 days; for % Reduction of parasitemia, 5th day, Exp.1 / Mean Parasitemia ± SD, 5th day, Exp.1 / % Reduction of parasitemia, 7th day, Exp.1 / Mean Parasitemia ± SD, 7th day, Exp.1: chloroquine 5 mg/kg, LQB223 100 mg/kg; for % Reduction of parasitemia, 5th day, Exp.1 / % Reduction of parasitemia, 5th day, Exp.2: day 5; for % Reduction of parasitemia, 5th day, Exp.1 / % Reduction of parasitemia, 7th day, Exp.1 / % Reduction of parasitemia, 5th day, Exp.2 / % Reduction of parasitemia, 7th day, Exp.2: versus non-treated mice; for Mean Parasitemia ± SD, 5th day, Exp.1 / Mean Parasitemia ± SD, 5th day, Exp.2: day 5 of infection; for % Reduction of parasitemia, 7th day, Exp.1 / % Reduction of parasitemia, 7th day, Exp.2: day 7; for Mean Parasitemia ± SD, 7th day, Exp.1 / Mean Parasitemia ± SD, 7th day, Exp.2: day 7 of infection; for % Reduction of parasitemia, 5th day, Exp.2 / Mean Parasitemia ± SD, 5th day, Exp.2 / % Reduction of parasitemia, 7th day, Exp.2 / Mean Parasitemia ± SD, 7th day, Exp.2: chloroquine 15 mg/kg, LQB223 50 mg/kg
Procedure: The antimalarial suppressive test in mice, as previously described, was slightly modified. Briefly, Swiss outbred adult female mice, 20±2 g weight, were inoculated with P. berghei CQ-sensitive (NK65) by intraperitoneal route, 1×10^5 freshly infected red blood cells (iRBC) per animal. Two to 24 h later, the mice were randomly distributed to be submitted to drug treatment by oral route, during three consecutive days, once a day; two control groups were used, one non treated and another treated with CQ (either 5 or 15 mg/kg).
The molecule LQB223, freshly diluted with 3% DMSO in water immediately before treatment, was given by gavage, in doses of 100 and 50 mg/kg in 200 µL volume per animal. Blood smears were prepared at days fifth and seventh after parasite inoculation, methanol-fixed, stained with Giemsa, and examined microscopically for parasitemia determination. […] Molecules reducing parasitemia by 30% or more were considered active.

[5] = tested on: P. falciparum CQ-resistant (W2 clone); settings: ref [9], [10]; cited from earlier work
[6] = tested on: P. falciparum CQ-sensitive (3D7 strain); settings: ref [9], [10]; cited from earlier work
[7] = CQ-resistant W2, anti-HRPII test, three experiments, ≤10 active, 11–20 partially active, >20 inactive, read-out: IC50 (µg/mL) Mean ± SD, W2
[8] = CQ-sensitive 3D7, anti-HRPII test, three experiments, ≤10 active, 11–20 partially active, >20 inactive, read-out: IC50 (µg/mL) Mean ± SD, 3D7
[9] = BGM monkey kidney cells, MTT, minimal lethal dose for 50% of cells
[10] = W2, CQ-resistant P. falciparum, single curve printed in the picture, read-out: IC50 from dose response curve (Figure 3)

Structure (SMILES): O=C1C2=C(C(=O)c3ccccc31)[C@H]1Oc3ccccc3[C@H]1CO2 (relative stereo) [LQB118]
IC50 [1, 7]: 0.17 ± 0.1 µg/mL (≈ 0.559 µM)
IC50 [2, 8]: 0.16 ± 0.03 µg/mL (≈ 0.526 µM)
toxicity to BGM cells [3]: toxic to BGM cells
MDL50 (µg/mL) Mean ± SD ([3]; green monkey): ≤3.9 µg/mL

IC50 [1, 7]: 2.9 ± 2.5 µg/mL (≈ 6.34 µM)
IC50 [2, 8]: 3.8 ± 1 µg/mL (≈ 8.31 µM)
Structure (SMILES): Cc1ccc(S(=O)(=O)N2c3ccccc3[C@H]3COC4=C(C(=O)c5ccccc5C4=O)[C@H]32)cc1 (relative stereo) [LQB192]
toxicity to BGM cells ([3]; BGM cells): toxic to BGM cells
MDL50 (µg/mL) Mean ± SD [3, 9]: 68.7 ± 8.4 µg/mL

IC50 [1, 10]: 0.23 µg/mL (≈ 0.688 µM)
IC50 [1, 7]: 0.4 ± 0.2 µg/mL (≈ 1.2 µM)
IC50 [2, 8]: 0.21 ± 0.09 µg/mL (≈ 0.628 µM)
Structure (SMILES): COc1ccc2c(c1)O[C@@H]1C3=C(OC[C@H]21)C(=O)c1ccccc1C3=O (relative stereo) [LQB216]
MDL50 (µg/mL) Mean ± SD [3, 9]: 24.2 ± 3 µg/mL

IC50 [1, 7]: 0.63 ± 0.8 µg/mL (≈ 1.74 µM)
IC50 [2, 8]: 0.25 ± 0.1 µg/mL (≈ 0.69 µM)
Structure (SMILES): COC(=O)c1ccc2c(c1)[C@H]1COC3=C(C(=O)c4ccccc4C3=O)[C@H]1O2 (relative stereo) [LQB221]
toxicity to BGM cells ([3]; BGM cells): toxic to BGM cells
MDL50 (µg/mL) Mean ± SD [3, 9]: 5.1 µg/mL

IC50 [1, 7]: 1.8 ± 1.6 µg/mL (≈ 4.97 µM)
IC50 [2, 8]: 3.5 ± 0.4 µg/mL (≈ 9.66 µM)
Structure (SMILES): COc1cc(C=O)cc2c1O[C@@H]1C3=C(OC[C@H]21)C(=O)c1ccccc1C3=O (relative stereo) [LQB222]
toxicity to BGM cells ([3]; BGM cells): toxic to BGM cells
MDL50 (µg/mL) Mean ± SD [3, 9]: ≤3.9 µg/mL

IC50 [1, 10]: 12.4 µg/mL (≈ 33 µM)
IC50 [1, 7]: 10.2 ± 1.2 µg/mL (≈ 27.2 µM)
IC50 [2, 8]: 7.8 ± 3 µg/mL (≈ 20.8 µM)
Structure (SMILES): Cc1ccc(S(=O)(=O)N2c3ccccc3[C@H]3CCc4ccccc4[C@H]32)cc1 (relative stereo) [LQB223]
MDL50 (µg/mL) Mean ± SD [3, 9]: ≥1000 µg/mL
% Reduction of parasitemia, 5th day, Exp.1 [4]: 67%
Mean Parasitemia ± SD, 5th day, Exp.1 [4]: 0.15±0.2
% Reduction of parasitemia, 7th day, Exp.1 [4]: 28%
Mean Parasitemia ± SD, 7th day, Exp.1 [4]: 11±3
% Reduction of parasitemia, 5th day, Exp.2 [4]: 30%
Mean Parasitemia ± SD, 5th day, Exp.2 [4]: 1.2±0.5
% Reduction of parasitemia, 7th day, Exp.2 [4]: 13%
Mean Parasitemia ± SD, 7th day, Exp.2 [4]: 18.3±1.5
antimalarial activity in vivo ([4]; mice infected with P. berghei): active in vivo

Structure (SMILES): CCN(CC)CCCC(C)Nc1ccnc2cc(Cl)ccc12 (stereo not drawn) [Chloroquine, chloroquine, reference compound]
IC50 ([1]; W2, read-out: IC50 (µg/mL) Mean ± SD, W2): 0.138 µg/mL (≈ 0.431 µM)
IC50 ([2]; 3D7, read-out: IC50 (µg/mL) Mean ± SD, 3D7): 0.03 µg/mL (≈ 0.0938 µM)
% Reduction of parasitemia, 5th day, Exp.1 [4]: 100%
Mean Parasitemia ± SD, 5th day, Exp.1 [4]: 0
% Reduction of parasitemia, 7th day, Exp.1 [4]: 52%
Mean Parasitemia ± SD, 7th day, Exp.1 [4]: 7.3±3
% Reduction of parasitemia, 5th day, Exp.2 [4]: 100%
Mean Parasitemia ± SD, 5th day, Exp.2 [4]: 0±0.0
% Reduction of parasitemia, 7th day, Exp.2 [4]: 100%
Mean Parasitemia ± SD, 7th day, Exp.2 [4]: 0±0.0
IC50, W2 clone, previous work [5]: 0.07 µg/mL (≈ 0.219 µM)
IC50, 3D7 strain, previous work [6]: 0.0035 µg/mL (≈ 0.0109 µM)
